Assays:
Cox-1 = molecular target: T1, Cox-1 (Rattus norvegicus, UniProt Q63921); experiment: COXs inhibition, rat whole blood Cox-1; assay type: cell-based; details: read-out: ratWB Cox-1 IC50
T1 construct: from tissue; host or cells: rat whole blood ('ratWB')
T1 sequence (Q63921 27-602): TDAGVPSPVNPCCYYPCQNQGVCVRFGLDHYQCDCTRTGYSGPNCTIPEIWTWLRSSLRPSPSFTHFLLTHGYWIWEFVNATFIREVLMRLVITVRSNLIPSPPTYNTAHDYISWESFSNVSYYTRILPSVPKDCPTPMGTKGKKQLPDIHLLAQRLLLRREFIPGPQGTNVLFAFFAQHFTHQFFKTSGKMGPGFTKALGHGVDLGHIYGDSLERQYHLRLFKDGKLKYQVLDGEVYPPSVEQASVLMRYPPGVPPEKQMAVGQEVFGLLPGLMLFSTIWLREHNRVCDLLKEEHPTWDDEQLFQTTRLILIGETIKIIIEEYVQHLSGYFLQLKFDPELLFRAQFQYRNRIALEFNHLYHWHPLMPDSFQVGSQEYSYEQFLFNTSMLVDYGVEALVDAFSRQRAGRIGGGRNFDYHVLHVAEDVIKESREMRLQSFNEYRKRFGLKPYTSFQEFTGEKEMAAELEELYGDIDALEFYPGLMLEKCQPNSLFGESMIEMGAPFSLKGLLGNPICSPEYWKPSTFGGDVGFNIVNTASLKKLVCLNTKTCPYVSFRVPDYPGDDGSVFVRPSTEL
Method: Methods for Testing Compounds on Inhibiting COXs
Activities of inhibiting COXs can be investigated by the manner described in Proc. Natl. Acad. Sci. USA 96, 7563, […].
As a result, compounds of the present invention are less or no potent COXs inhibitors. A result of COXs inhibition of the selected compounds (Example Nos. 1, 3, 12, 188, 474, 497, 507, 513, 527, 533, 562, and 638) are: ratWB Cox-1 IC50>30 μM and ratWB IC50>30 μM.

[1] = tested on: rhythmic bladder contractions; experiment: Inhibitory effect on the rhythmic bladder contractions in anesthetized rats; assay type: in vivo, rat; details: 10 mg/kg
From the text: Inhibitory Effect on the Rhythmic Bladder Contractions in Anesthetized Rats
Female Sprague-Dawley rats (9 to 12 weeks old weighing between 200 to 300 g) were anethethized with urethane (subcutaneously administered with a dose of 1.2 g/kg). Both ureters were cannulated to excrete urine. A cannula was inserted into the bladder via the urethra and secured with a ligature around the urethral opening and connected to a three-way stopcock. The ends were connected to a pressure transducer for measurement of bladder pressure and to a infusion pump for intravesical infusion of saline. A cannula was inserted in the femoral vein for intravenous (i.v.) drug administration. Following a over 20 minute post-surgical stabilization period and emptying of urine in the bladder, saline was infused into the bladder (50 μl/min) to evoke the micturition reflex. After the rhythmic bladder contractions had occurred, the saline infusion rate into the bladder was changed to 5 μl/min in order to maintain these contractions. Compounds were administered after stable rhythmic bladder contraction was obtained over 15 minutes. All compounds were dissolved in saline containing 10% dimethyl acetamide for intravenous administration (1 ml/kg). When iberiotoxin, a large conductance calcium-activated K channel blocker (0.15 mg/kg, i.v.) was administered for comparison purposes, it was administered 5 minutes before drug administration.
The frequencies (contractions per minute) of rhythmic bladder contractions were calculated for 10 minutes before and after drug administration. The efficacy of compounds expressed as percent of inhibition in frequency, which calculated from the following formula: (1−frequency after dosing/frequency before dosing)×100(%)

human BKαβ1 channels = molecular target: T2, human BKαβ1 channels (Homo sapiens, UniProt Q12791); experiment: BK current in CHO cells expressing human BKαβ1 (PatchXpress whole-cell patch clamp), EC100; assay type: cell-based; details: drug concentration causing 100% increase of BK current
T2 construct: expressed in transfected cells; host or cells: CHO cells (G418 and hygromycin selection)
Method: Methods for Testing Compounds on Human BKαβ1 Channels Expressed Cho Cells
CHO cells expressing human BKαβ1 were cultured in T75 or 6 well cell culture cluster. Medium: DMEM/F12+10% FBS+0.5 mg/mL G418/genetecin+0.1 mg/mL Hygromycin. Split cells every 3-4 days at 80-90% confluence. Use cells for experiments 60-72 hrs after re-passage and at ˜90% confluence.
Trypsin solution (0.05% Trypsin+0.1% EDTA), Ca^2+ free PBS and culture medium were warmed to 37° C. Inspect the T75 flask for cell confluence. Remove culture medium and add warm Ca^2+ free PBS to wash cells. Remove Ca^2+ free PBS and add warm Trypsin solution. Put the T75 flask back to 37° C. incubator for about 4.5 minutes. Stop Trypsin activity by adding culture medium. Spin the cells down. Suspend cells in 120-160 μL external solution for BK current recording and use the cells as soon as possible.
PatchXpress Sealchip 16 electrodes (AVIVA Biosciences) and PatchXpress 7000A (Axon Instruments, Inc) were used for BK current recording. Flat bottom 1.5 mL glass vial (HiPep Laboratories) were used for containing external solutions (±compounds). The holes in the sealchip (equivalent to patch electrode) had resistance about 1.5 MΩ. Cell membrane capacitance was compensated and access resistance was also compensated by 40%. Voltage-clamp protocol: Holding voltage=0 mV. Record BK current during 200-ms steps between +80 to +120 mV in 10 mV increments and 2 sec inter-pulse interval. On-line digital leak subtraction was performed by a P/−4 procedure. After whole-cell configuration was established, 2 minute was used to optimize access resistance. Then the chamber was washed with control bath solution for 1 minute to remove excessive cells. Control bath solution was added with robotic pipette and control BK current was recorded after 1 minute equilibrium time. For each drug concentration, 45 μL drug solution was added three times with “suction before adding” mode which left old solution. For each drug addition, 1 minute equilibrium time was given. BK current was measured at each drug concentrations (usually within 3.5 minutes after first drug addition). Calculate % change of BK current at the voltage step when the control BK current first exceeding 200 pA. If the control BK current was less than 200 pA at 120 mV, the cell was not used. % changes were calculated as 100*(Id−Ic)/Ic, where Id was the current amplitude in the presence of drug and Ic was the control current amplitude.
EC100 was defined as the drug concentration causing 100% increase of BK current calculated by the method described above. EC100 was determined by the data points just below and above 100%. % Increase of BK current was plotted against log [drug concentration]. A straight line connected two data points flanking 100%. From this straight line, the concentration corresponding to 100% increase of BK current was determined as EC100.
Compounds were dissolved in DMSO to make 10 mM stock solutions. Subsequent dilutions were made with external solution. The testing drug concentrations were 0.1, 0.3, 1, 3 and 10 μM depending on the potency of compounds. The highest DMSO concentration was 0.1%. External solution (in mM): 140 NaCl, 4 KCl, 1 MgCl2, 2 CaCl2, 10 Glucose, 10 HEPES; pH=7.4 with NaOH. Internal solution (in mM): 140 KCl, 5 EGTA, 1 MgCl2, 5 MgATP, 0.2 CaCl2, 5 HEPES; pH=7.2 with KOH.

T2 sequence (Q12791 whole entry): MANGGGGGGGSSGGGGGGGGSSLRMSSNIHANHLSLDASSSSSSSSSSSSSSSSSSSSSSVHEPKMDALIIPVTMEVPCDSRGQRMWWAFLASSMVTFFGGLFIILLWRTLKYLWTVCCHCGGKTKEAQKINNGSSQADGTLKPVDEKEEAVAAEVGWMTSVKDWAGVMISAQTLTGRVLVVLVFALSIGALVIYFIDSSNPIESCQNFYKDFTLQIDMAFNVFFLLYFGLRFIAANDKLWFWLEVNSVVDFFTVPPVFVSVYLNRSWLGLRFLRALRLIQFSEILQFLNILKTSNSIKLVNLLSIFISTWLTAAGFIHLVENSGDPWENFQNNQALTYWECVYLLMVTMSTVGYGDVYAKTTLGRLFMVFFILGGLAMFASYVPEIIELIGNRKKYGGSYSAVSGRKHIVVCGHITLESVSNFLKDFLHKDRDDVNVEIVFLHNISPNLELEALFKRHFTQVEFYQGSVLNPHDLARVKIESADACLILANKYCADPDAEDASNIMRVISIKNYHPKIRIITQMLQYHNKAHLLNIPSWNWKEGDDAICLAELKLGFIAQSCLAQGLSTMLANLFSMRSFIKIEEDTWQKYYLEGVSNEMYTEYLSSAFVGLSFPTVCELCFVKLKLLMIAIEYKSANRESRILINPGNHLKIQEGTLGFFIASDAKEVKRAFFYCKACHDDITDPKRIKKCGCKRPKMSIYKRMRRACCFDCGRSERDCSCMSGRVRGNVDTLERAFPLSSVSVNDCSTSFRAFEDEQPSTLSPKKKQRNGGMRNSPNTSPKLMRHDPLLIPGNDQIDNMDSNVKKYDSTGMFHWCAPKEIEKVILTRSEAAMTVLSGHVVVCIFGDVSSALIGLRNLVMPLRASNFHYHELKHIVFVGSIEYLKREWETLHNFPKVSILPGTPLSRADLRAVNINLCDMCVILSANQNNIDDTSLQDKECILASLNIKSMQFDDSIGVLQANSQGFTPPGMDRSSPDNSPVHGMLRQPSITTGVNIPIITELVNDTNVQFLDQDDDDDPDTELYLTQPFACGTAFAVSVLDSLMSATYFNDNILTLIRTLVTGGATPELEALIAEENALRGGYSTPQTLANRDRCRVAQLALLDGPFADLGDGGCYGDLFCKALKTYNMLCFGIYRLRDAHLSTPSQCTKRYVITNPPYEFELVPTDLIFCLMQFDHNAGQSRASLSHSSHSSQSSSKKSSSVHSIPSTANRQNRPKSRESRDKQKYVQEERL
T2 sequence (Q16558 whole entry partner): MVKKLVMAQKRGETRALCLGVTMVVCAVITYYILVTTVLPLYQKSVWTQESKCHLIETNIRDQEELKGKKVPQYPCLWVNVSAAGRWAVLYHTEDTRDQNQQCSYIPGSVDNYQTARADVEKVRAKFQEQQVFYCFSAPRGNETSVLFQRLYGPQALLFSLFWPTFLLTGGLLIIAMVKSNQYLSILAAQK

| SMILES | IC50 (Cox-1) [µM] | EC100 (human BKαβ1 channels) [µM] | percent of inhibition in frequency of rhythmic bladder contractions ([1]; anesthetized female Sprague-Dawley rats, i.v., 10 minutes before vs after dosing) [%] | percent of inhibition in frequency of rhythmic bladder contractions ([1]; anesthetized rats, intravenous) |
| --- | --- | --- | --- | --- |
| COC[C@@H]1CCCN1c1cc(OC2(C(=O)[O-])CC2)nc(-c2cc(Cl)c(Cl)s2)n1.[Na+] [Example 5] | – | 0.78 | 78 | – |
| COC[C@@H]1CCCN1c1cc(OC(C)(C)C(=O)[O-])nc(-c2ccc(Cl)c(F)c2)n1.[Na+] [Example 12] | – | 1.39 | – | A (A: inhibition(%) > 50) |
| CC(C)(Oc1cc(N2CCC[C@H]2CF)nc(-c2ccc(Cl)c(F)c2)n1)C(=O)[O-].[Na+] [Example 22] | – | – | – | A (A: inhibition(%) > 50) |
| CC(C)OC1CCN(c2cc(OC3(C(=O)[O-])CC3)nc(-c3ccc(Cl)c(F)c3)n2)CC1.[Na+] [Example 52] | – | – | – | A (A: inhibition(%) > 50) |
| COc1ccc(-c2cc(OC3(C(=O)[O-])CCCC3)nc(-c3ccc(Cl)c(F)c3)n2)cn1.[Na+] [Example 567] | – | – | – | B (B: 50 > inhibition(%) > 30) |
| CCCOC1CCN(c2cc(OC3(C(=O)[O-])CC3)nc(-c3ccc(C(F)(F)F)cc3)n2)CC1.[Na+] [Example 693] | – | – | – | A (A: inhibition(%) > 50) |
| COCCC1CCN(c2nc(OC3(C(=O)O)CC3)cc(-c3cc(C)c(Cl)s3)n2)CC1 [Example 1208] | – | 0.96 | – | – |
| COCCCC1CCN(c2nc(OC3(C(=O)[O-])CC3)cc(-c3cc(C)c(Cl)s3)n2)CC1.[Na+] [Example 1215] | – | 0.39 | – | – |
| CCOC1CCN(c2nc(OC3(C(=O)O)CC3)cc(-c3cc(Cl)c(Cl)s3)n2)CC1 [Example 1216] | – | 0.54 | – | – |
| COCC1CCN(c2nc(OC3(C(=O)O)CC3)cc(-c3cc(Cl)c(Cl)s3)n2)CC1 [Example 1217] | – | 0.19 | – | – |
| COCCC1CCN(c2nc(OC3(C(=O)O)CC3)cc(-c3cc(Cl)c(Cl)s3)n2)CC1 [Example 1218] | – | 0.15 | – | – |
| CCO[C@H]1CCCN(c2nc(OC3(C(=O)[O-])CC3)cc(-c3cc(Cl)c(Cl)s3)n2)C1.[Na+] [Example 1227] | – | 0.37 | – | B (B: 50 > inhibition(%) > 30) |

Now from value to compound, other results behind:

| IC50 (Cox-1) [µM] | EC100 (human BKαβ1 channels) [µM] | SMILES | percent of inhibition in frequency of rhythmic bladder contractions ([1]; anesthetized female Sprague-Dawley rats, i.v., 10 minutes before vs after dosing) [%] | percent of inhibition in frequency of rhythmic bladder contractions ([1]; anesthetized rats, intravenous) |
| --- | --- | --- | --- | --- |
| > 30 | – | CC(C)(Oc1cc(N2CCCCC2)nc(-c2ccc(Cl)c(F)c2)n1)C(=O)O [Example 1] | – | – |
| > 30 | – | O=C(O)COc1cc(N2CCc3ccccc32)nc(-c2ccc(Cl)c(F)c2)n1 [Example 3] | – | – |
| – | 0.14 | CCC(CC)(Oc1cc(N2CCC[C@H]2COC)nc(-c2ccc(Cl)c(F)c2)n1)C(=O)[O-].[Na+] [Example 31] | – | B (B: 50 > inhibition(%) > 30) |
| – | 0.51 | O=C([O-])C1(Oc2cc(N3CCC(CCO)CC3)nc(-c3ccc(Cl)c(F)c3)n2)CCCC1.[Na+] [Example 59] | – | B (B: 50 > inhibition(%) > 30) |
| > 30 | – | O=C(O)COc1cc(-c2ccc(Cl)c(F)c2)nc(-c2ccc(F)cc2)n1 [Example 188] | – | – |
| – | 0.31 | CC(C)(Oc1cc(-c2cccc3cccnc23)nc(-c2ccc(Cl)c(F)c2)n1)C(=O)[O-].[Na+] [Example 497] | – | B (B: 50 > inhibition(%) > 30) |
| – | 0.37 | COCc1ccc(-c2cc(OC3(C(=O)[O-])CC3)nc(-c3ccc(Cl)c(F)c3)n2)cc1.[Na+] [Example 527] | – | A (A: inhibition(%) > 50) |
| – | 0.36 | COc1ccc(-c2cc(OC3(C(=O)[O-])CC3)nc(-c3ccc(Cl)c(F)c3)n2)cn1.[Na+] [Example 534] | – | B (B: 50 > inhibition(%) > 30) |
| – | 0.28 | COc1ccccc1-c1cc(OC2(C(=O)[O-])CCCC2)nc(-c2ccc(Cl)c(F)c2)n1.[Na+] [Example 565] | – | B (B: 50 > inhibition(%) > 30) |
| – | 0.49 | COCCOc1cc(F)ccc1-c1cc(OC2(C(=O)[O-])CC2)nc(-c2ccc(F)c(F)c2)n1.[Na+] [Example 619] | – | B (B: 50 > inhibition(%) > 30) |
| – | 0.13 | CCOc1cc(-c2nc(-c3ccc(F)cc3)nc(OC3(C(=O)[O-])CC3)c2C)ccc1F.[Na+] [Example 977] | – | B (B: 50 > inhibition(%) > 30) |
| – | 0.03 | Cc1ccc(Cl)cc1-c1nc(OC2(C(=O)[O-])CC2)nc(-c2ccc(Cl)cc2)n1.[Na+] [Example 1091] | – | B (B: 50 > inhibition(%) > 30) |
| – | 0.3 | O=C([O-])C1(Oc2cc(N3CCc4cc(F)ccc4C3)nc(-c3ccc(F)cc3)n2)CC1.[Na+] [Example 1110] | – | B (B: 50 > inhibition(%) > 30) |
| – | 0.01 | O=C(O)C1(Oc2cc(-c3ccc(Cl)s3)nc(N3CCc4cc(F)ccc4C3)n2)CC1 [Example 1203] | – | – |
| – | 0.12 | O=C(O)C1(Oc2cc(OCc3ccc(F)cc3)nc(-c3ccc(Cl)cc3)n2)CC1 [Example 1281] | – | – |
| – | 1.2 | O=C(O)C1(Oc2cc(-c3ccc(Cl)cc3)nc(OCc3ccc(F)c(F)c3)n2)CC1 [Example 1286] | – | – |
